From PMC11472313, “Development of Fragment-Based Inhibitors of the Bacterial Deacetylase LpxC with Low Nanomolar Activity” (Journal of Medicinal Chemistry, 2024)
Converted amounts (≈) assume the structure as drawn. Read-outs that look alike come from different tables or passages of the source.

Tests used:
[1] = tested on: P. aeruginosa LpxC (PaLpxC); conditions: cited from earlier work
LasB [2] = molecular target: T1, LasB (Pseudomonas aeruginosa, UniProt Q02RJ6); conditions: cited from earlier work
T1 construct: The elastase LasB of P. aeruginosa is a secreted metalloprotease; endogenous in cells; host or cells: P. aeruginosa PA14 culture supernatant
T1 sequence (Q02RJ6 198-498): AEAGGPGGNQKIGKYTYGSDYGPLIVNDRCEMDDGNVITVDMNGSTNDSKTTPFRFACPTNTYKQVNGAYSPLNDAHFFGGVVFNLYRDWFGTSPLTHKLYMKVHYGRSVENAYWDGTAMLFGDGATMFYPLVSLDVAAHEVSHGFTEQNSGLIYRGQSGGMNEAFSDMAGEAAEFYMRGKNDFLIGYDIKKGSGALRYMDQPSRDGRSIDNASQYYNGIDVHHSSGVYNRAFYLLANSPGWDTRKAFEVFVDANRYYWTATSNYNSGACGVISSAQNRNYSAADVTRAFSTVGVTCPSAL

E. coli BL21(DE3) [3] = conditions: cited from earlier work
E. coli BL21(DE3) [4] = experiment: disc diffusion assay; format: cell-based; conditions: 0.15 μmol per 6 mm disc
Description: (§1) Besides measuring the inhibitory activities toward E. coli LpxC C63A, the antibacterial activities of the synthesized hydroxamic acids were evaluated by determining their minimal inhibitory concentrations (MIC) in broth dilution tests as well as by performing disc diffusion assays (Table 1).
(§2) The disc diffusion assays against E. coli BL21(DE3) and the defective strain E. coli D22 were performed as follows: liquid cultures of the bacteria were grown overnight in lysogeny broth (LB)[73] at 37 °C and 200 rpm. 150 μL of an overnight cell suspension was spread evenly onto LB agar plates. 0.15 μmol of each compound (dissolved in 10 or 15 μL DMSO) were applied onto circular filter paper (Ø = 6 mm, Cytiva). Pure DMSO, serving as a negative control, and CHIR-090, serving as a positive control, were also spotted. The agar plates were incubated overnight at 37 °C, and the diameter of the zone of growth inhibition was measured for each compound. Each assay was performed at least three times on separate days.

E. coli D22 [5] = experiment: disc diffusion assay; format: cell-based; conditions: 0.15 μmol per 6 mm disc
Description: as §1, §2

E. coli LpxC C63A = molecular target: T2, E. coli LpxC C63A (Escherichia coli, UniProt P0A725, C63A); experiment: fluorescence-based E. coli LpxC C63A enzyme inhibition assay; format: biochemical; conditions: Ki E. coli LpxC C63A, from IC50 via Cheng–Prusoff
T2 construct: made in house; host or cells: E. coli BL21(DE3)
T2 sequence (P0A725 whole entry C63A): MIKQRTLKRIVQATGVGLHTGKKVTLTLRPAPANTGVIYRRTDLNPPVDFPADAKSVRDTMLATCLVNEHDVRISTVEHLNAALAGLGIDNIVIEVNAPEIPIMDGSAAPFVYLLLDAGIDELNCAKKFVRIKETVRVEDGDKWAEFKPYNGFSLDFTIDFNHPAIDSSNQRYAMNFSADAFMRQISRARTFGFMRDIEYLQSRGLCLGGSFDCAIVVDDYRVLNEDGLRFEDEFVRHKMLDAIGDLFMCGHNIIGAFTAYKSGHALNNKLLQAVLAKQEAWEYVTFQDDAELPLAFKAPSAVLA
Description: In order to determine the inhibitory activities of the compounds of interest toward E. coli LpxC, a fluorescence-based enzyme assay was deployed, in which the formed deacetylated natural product UDP-3-O-[(R)-3-hydroxymyristoyl]glucosamine (2) is transformed into a fluorescent isoindole with o-phthaldialdehyde and 2-mercaptoethanol.[48],[49] […] The KM of E. coli LpxC C63A was determined experimentally using a mass spectrometry-based LpxC assay (Figure S8, Supporting Information, vide infra).
A fluorescence-based microplate assay for LpxC activity was performed as described by Clements et al.[48] The wells in a black, nonbinding, 96-well fluorescence microplate (Greiner Bio One, Frickenhausen) were filled with 93 μL of 26.9 μM UDP-3-O-[(R)-3-hydroxymyristoyl]-N-acetylglucosamine in assay buffer [40 mM sodium morpholinoethanesulfonic acid (pH 6.0), 80 μM dithiothreitol, 0.02% Brij 35]. In order to assay the inhibitors at final concentrations from 20 nM up to 20 μM, 2 μL of a respective dilution of the compounds in DMSO were added. The addition of 5 μL of a solution of purified LpxC (10 μg mL^–1) in assay buffer led to final concentrations of 25 μM UDP-3-O-[(R)-3-hydroxymyristoyl]-N-acetylglucosamine, 15 nM E. coli LpxC C63A, 2% DMSO, and from 20 nM up to 20 μM inhibitor. The microplate was incubated for 30 min at 37 °C in a plate shaker. Then, the biochemical reaction was stopped by adding 40 μL of 0.625 M sodium hydroxide. The reaction mixture was further incubated for 10 min and neutralized by adding 40 μL of 0.625 M acetic acid. The deacetylated product UDP-3-O-[(R)-3-hydroxymyristoyl]glucosamine was converted into a fluorescing isoindole by adding 120 μL of an o-phthaldialdehyde-2-mercaptoethanol solution, which was prepared by dissolving 10 mg of o-phthaldialdehyde in 1 mL of methanol, diluting the mixture with 24 mL of a sodium borate buffer (0.1 M), and finally adding 2.5 μL of 2-mercaptoethanol.[49] Fluorescence was measured with a TriStar^2 S LB 942 plate reader (Berthold, Bad Wildbad) at 340 nm excitation and 460 nm emission wavelengths. Each assay was performed at least three times on separate days. The IC50 values were calculated via Probit-log concentration graphs with the aid of the software Origin and were subsequently converted into Ki values using the Cheng–Prusoff equation.[75],[76]

E. coli BL21(DE3) [6] = experiment: MIC, broth microdilution; format: cell-based; conditions: Escherichia coli, 20 h, 37 °C, LB
Description: as §1
(§3) The MIC values of the compounds were determined by means of the microdilution method using 96-well plates.
(§4) The overnight suspension was diluted 1:1000 in fresh LB. 10 μL of a 2-fold dilution series of the compounds in DMSO and 90 μL of LB were dispensed to each well of a 96-well plate. Then, 100 μL of the inoculated medium was added, resulting in 5 × 10^5 cfu mL^–1, 5% DMSO, and a final concentration range of the test compounds between 64 and 0.016 μg mL^–1. The plates were incubated for 20 h at 37 °C. The MIC was defined as the lowest concentration of the compounds that prevented visible growth after incubation. Each assay was performed at least three times on separate days.

E. coli D22 [7] = experiment: MIC, broth microdilution; format: cell-based; conditions: Escherichia coli, 20 h, 37 °C, LB
Description: as §1, §3, §4

P. aeruginosa LpxC = molecular target: T3, P. aeruginosa LpxC (Pseudomonas aeruginosa, UniProt P47205); experiment: LC–MS/MS-based P. aeruginosa LpxC enzyme inhibition assay; format: biochemical; conditions: from IC50 via Cheng–Prusoff
T3 construct: made in house; host or cells: E. coli BL21(DE3)
T3 sequence (P47205 whole entry): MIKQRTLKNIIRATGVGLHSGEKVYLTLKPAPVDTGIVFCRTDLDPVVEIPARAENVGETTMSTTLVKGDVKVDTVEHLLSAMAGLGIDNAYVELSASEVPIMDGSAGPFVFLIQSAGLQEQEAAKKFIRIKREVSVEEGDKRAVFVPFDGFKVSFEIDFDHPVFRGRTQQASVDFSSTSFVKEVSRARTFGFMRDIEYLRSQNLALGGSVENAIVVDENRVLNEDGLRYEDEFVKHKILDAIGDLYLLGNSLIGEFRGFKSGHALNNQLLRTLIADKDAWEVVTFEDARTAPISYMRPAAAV
Source text: As Pseudomonas aeruginosa is one of the so-called ESKAPE pathogens,[56] being the leading cause of nosocomial infections throughout the world, and carbapenem-resistant P. aeruginosa strains were assigned the highest priority (priority 1: critical) within the “WHO priority pathogens list for R&D of new antibiotics” (WHO 2017),[57] new antibacterial agents combating these bacteria are urgently required. Thus, our newly developed LpxC inhibitors should be tested for inhibitory activity toward P. aeruginosa LpxC, which shares 57% sequence identity with E. coli LpxC.[28] Therefore, a liquid chromatography with tandem mass spectrometry (LC–MS/MS)-based P. aeruginosa LpxC assay was established. […] After incubation and subsequent termination of the enzymatic reaction, the samples were subjected to LC–MS/MS analysis. Following the chromatographic separation of substrate 1 and deacetylated product 2, the eluted compounds were ionized and subjected to fragmentation. Three multiple reaction monitoring (MRM) transitions were detected per compound [precursor ions: m/z (substrate 1) 832; m/z (deacetylated product 2) 790; product ions: m/z (product 1) 385, collision energy = −60 V; m/z (product 2) 159, collision energy = −80 V; m/z (product 3) 79, collision energy = −140 V]. The MRM transitions 832 → 79 of substrate 1 and 790 → 79 of product 2 were used as quantifiers; the other mass transitions were used as qualifiers.
The protocol of the LC–MS/MS-based P. aeruginosa LpxC assay was based on the E. coli LpxC C63A enzyme assay. Compared to the fluorescence-based enzyme assay, the substrate was diluted 1:10 and the inhibitors were diluted 1:4.
The wells in a black, nonbinding, 96-well fluorescence microplate (Greiner Bio One, Frickenhausen) were filled with 93 μL of 2.69 μM UDP-3-O-[(R)-3-hydroxymyristoyl]-N-acetylglucosamine in assay buffer [50 mM KH2PO4/K2HPO4 (pH = 7.5), 80 μM dithiothreitol, 0.02% Brij 35]. In order to assay the inhibitors at final concentrations from 5 nM up to 5 μM, 2 μL of a respective dilution of the compounds in DMSO were added. The addition of 5 μL of a solution of purified P. aeruginosa LpxC (5 μg mL^–1) in assay buffer led to final concentrations of 2.5 μM UDP-3-O-[(R)-3-hydroxymyristoyl]-N-acetylglucosamine, 7.5 nM P. aeruginosa LpxC, 2% DMSO, and from 5 nM up to 5 μM inhibitor. The microplate was incubated for 30 min at 37 °C in a plate shaker. Then, the biochemical reaction was stopped by adding 40 μL of 0.625 M hydrochloric acid. The reaction mixtures were further incubated for 10 min, sealed, and stored at −80 °C until analysis.
LC–MS/MS-Analysis. The reaction mixtures were separated by ultrahigh performance liquid-chromatography (1290 II Infinity UHPLC, Agilent Technologies), and the eluted compounds were analyzed by mass spectrometry using electrospray ionization in negative ion mode with a triple quadrupole linear ion trap mass spectrometer (QTRAP 5500, AB Sciex LLC).
To analyze the eluted compounds by mass spectrometry, a MRM method was applied. The specific parameters of this method are given in Table S2 (Supporting Information). After detection and selection of the precursor ions (1: m/z 832; 2: m/z 790), both analytes were fragmented, leading to three identical product ions [m/z (product 1) 385, collision energy = −60 V; m/z (product 2) 159, collision energy = −80 V; m/z (product 3) 79, collision energy = −140 V]. The mass transitions 832 → 79 (substrate 1) and 790 → 79 (product 2) were used as quantifiers; the other mass transitions were used as qualifiers. The ratio between substrate 1 and product 2 was quantified by comparing the peak areas of the quantifiers. The percentual inhibition caused by each inhibitor concentration was determined with respect to the amount of the product formed in the noninhibited reaction after 30 min.
Each assay was performed at least two times on separate days. […]

P. aeruginosa ATCC 27853 = experiment: disc diffusion assay; format: cell-based; conditions: 0.15 μmol per 6 mm disc
Description: (§5) In the performed disc diffusion assays, indole derivatives (S)-13h, (S)-13i, and (S)-13j caused promising halos of growth inhibition.
(§6) The disc diffusion assays against E. coli TOP10 (Thermo Fisher, Waltham, USA), E. coli ATCC 35218, K. pneumoniae ATCC 700603, and P. aeruginosa ATCC 27853 were performed as follows: the bacteria were grown overnight on a Columbia blood agar plate (Oxoid, Basingstoke, UK), and one colony was suspended in sterile saline to yield a suspension of 0.5 McFarland standard. Using a sterile swab, the suspension was spread evenly onto Mueller–Hinton agar (Oxoid, Basingstoke, UK). 0.15 μmol of each compound (dissolved in 10 μL DMSO) was applied onto circular 6 mm diameter filter paper disks, which were then placed on the agar. After incubating the agar plates for 20 h at 37 °C, the diameter of the zone of growth inhibition was measured for each compound.

E. coli TOP10 = experiment: disc diffusion assay; format: cell-based; conditions: 0.15 μmol per 6 mm disc
Description: as §5, §6

E. coli ATCC 35218 = experiment: disc diffusion assay; format: cell-based; conditions: 0.15 μmol per 6 mm disc
Description: as §5, §6

LasB [8] = molecular target: T1, LasB; experiment: FRET-based LasB in vitro inhibition assay; format: biochemical, P. aeruginosa PA14
Description: Purification of LasB from P. aeruginosa PA14 supernatant and the subsequent performance of the FRET-based in vitro inhibition assay was performed as described previously.[66] The TACE (ADAM-17) inhibitor screening kit was purchased from Sigma-Aldrich (Saint Louis, MO). MMPs 1–3 along with the SensoLyte 520 Generic MMP Activity Kit Fluorimetric were purchased from AnaSpec (Fremont, CA, USA). The assays were performed according to the guidelines of the respective manufacturer. Fluorescence signals were measured using a CLARIOstar plate reader (BMG Labtech, Ortenberg, Germany).

[9] = tested on: K. pneumoniae ATCC 700603; experiment: disc diffusion assay; format: cell-based, Klebsiella pneumoniae; conditions: 0.15 μmol per 6 mm disc
Description: as §5, §6

E. coli LpxC (EcLpxC) = conditions: cited from earlier work

In the case of `CCc1ccc(-c2ccc(C(=O)N[C@H](C(=O)NO)[C@@H](C)NCC(=O)O)cc2)cc1` [7b], the “PaLpxC: IC50” value [1] is given as 0.0004 µg/mL.
In the case of `CCc1ccc(-c2ccc(C(=O)N[C@H](C(=O)NO)[C@@H](C)NCc3ccccn3)cc2)cc1` [7d], the “PaLpxC: IC50” value [1] is listed as 0.041 µg/mL.
For `O=C(NO)[C@H](OCc1ccc(C#Cc2ccc(CN3CCOCC3)cc2)cc1)[C@H](O)COCc1ccccc1` [(2R,3R)-10], the “LasB Inhibition at 20 μM” value (LasB [2]) is given as “n.i. (n.i.: <10% inhibition)”.
For `O=C(NO)[C@H](OCc1ccc(C#Cc2ccc(CN3CCOCC3)cc2)cc1)[C@@H](O)COCc1ccccc1` [(2R,3S)-10], the “LasB Inhibition at 20 μM” value (LasB [2]) is given as “n.i. (n.i.: <10% inhibition)” and the “MIC E. coli BL21(DE3)” value (E. coli BL21(DE3) [3]) is given as greater than 64 µg/mL.
For `Cc1noc(C)c1COC[C@H](O)[C@H](OCc1ccc(C#Cc2ccc(CN3CCOCC3)cc2)cc1)C(=O)NO` [(2S,3S)-40], the “LasB Inhibition at 20 μM” value (LasB [2]) is given as “n.i. (n.i.: <10% inhibition)”.
For `O=C(NC[C@@H](OCc1ccc(C#Cc2ccc(CN3CCOCC3)cc2)cc1)C(=O)NO)c1c[nH]c2ccccc12` [(R)-13h], the “Inhibition zone E. coli BL21(DE3)” value (E. coli BL21(DE3) [4]) was no more than 6 mm, the “Inhibition zone E. coli D22” value (E. coli D22 [5]) was 13.3 ± 1.0 mm and the Ki (E. coli LpxC C63A) was 1580 ± 216 nM. It also gave an MIC (E. coli BL21(DE3) [6]) greater than 16 µg/mL, an MIC (E. coli D22 [7]) of 4 µg/mL (≈ 7.24 µM) and a Ki (P. aeruginosa LpxC) of 631 ± 198 nM.
In the case of `O=C(NC[C@H](OCc1ccc(C#Cc2ccc(CN3CCOCC3)cc2)cc1)C(=O)NO)c1ccc(-c2ccccc2)cc1` [(S)-13b], the “Inhibition zone P. aeruginosa ATCC 27853” value (P. aeruginosa ATCC 27853) is reported as less than 6 mm, the “Inhibition zone E. coli TOP 10” value (E. coli TOP10) is reported as less than 6 mm and the “Inhibition zone E. coli ATCC 35218” value (E. coli ATCC 35218) is reported as less than 6 mm. For the same molecule, the “LasB Inhibition at 20 μM” value (LasB [8]; 20 μM) was “little to no inhibitory activity”, the inhibition at 20 µM (LasB [8]; read-out: LasB Inhibition at 20 μM) was less than 10% and the “Inhibition zone E. coli BL21(DE3)” value (E. coli BL21(DE3) [4]) was no more than 6 mm. The “Inhibition zone E. coli D22” value (E. coli D22 [5]) was 11.2 ± 2.9 mm, the Ki (E. coli LpxC C63A) was greater than 2540 nM and the MIC (E. coli BL21(DE3) [6]) was greater than 16 µg/mL. For the same molecule, the MIC (E. coli D22 [7]) was 0.13 µg/mL (≈ 0.22 µM) and the “Inhibition zone K. pneumoniae ATCC 700603” value [9] was less than 6 mm.
In the case of `CC(O)C(NC(=O)c1ccc(C#CC#Cc2ccc(N)cc2)cc1)C(=O)NO` (stereo not drawn) [LPC-011], the Ki (E. coli LpxC (EcLpxC)) is given as 0.039 nM.
